Test results from article PMC8253220, “Molecular design, synthesis and in vitro biological evaluation of thienopyrimidine–hydroxamic acids as chimeric kinase HDAC inhibitors: a challenging approach to combat cancer” (Journal of Enzyme Inhibition and Medicinal Chemistry, 2021).

Experiments:
Hela nuclear extracts = assay: Hela nuclear extract HDAC inhibitor assay (BPS Bioscience); format: biochemical; details: 10 µM
Procedure: The purpose of the study is to determine the effects of twenty compounds from Misr International University on the enzymatic activities of hela nuclear extracts using an in vitro […]
7a Solution 10mM DMSO 10 10 % DMSO in
7b Solution 10mM DMSO 10 10 % DMSO in
7d Solution 10mM DMSO 10 10 % DMSO in
2.3 Experimental Conditions
2.3.1 Enzymes and Substrates
Assay Catalog # Substrate
Hela Nuclear Exctract 50053 10 µM HDAC Substrate 3
For the hela nuclear extracts, hela cells were grown to 90 % confluency. Hela nuclear extracts were prepared from the Nuclear Extraction Kit from abcam (Catalog # ab113474). The final total protein concentration was calculated to be 2.4 µg/µl. From this, the hela nuclear extracts was diluted 20-fold in HDAC assay buffer and 5 µl of the dilution was added to a 50 µl reaction.
The compounds are dissolved in DMSO. A series of dilutions of the compounds were prepared with 10% DMSO in HDAC assay buffer and 5 µl of the dilution was added to a 50 µl reaction so that the final concentration of DMSO is 1 % in all of […]
The enzymatic reactions for the hela nuclear extract were conducted in duplicate at 37 °C for 60 minutes in a 50 µl mixture containing HDAC assay buffer, 5 µg BSA, an HDAC substrate (see 2.3.1), hela nuclear extract, and a test compound (see 2.2).
After enzymatic reactions, 50μl of 2 x HDAC Developer was added to each well for the hela nuclear extract and the plate was incubated at room temperature for an additional 15 […]
Fluorescence intensity was measured at an excitation of 360 nm and an emission of 460 nm using a Tecan Infinite M1000 microplate reader.
Hela nuclear extract activity assays were performed in duplicates at each concentration.
The fluorescent intensity data were analyzed using the computer software, Graphpad Prism. In the absence of the compound, the fluorescent intensity (Ft) in each data set was defined as 100% activity. In the absence of hela nuclear extract, the fluorescent intensity (Fb) in each data set was defined as 0% activity. The percent activity in the presence of each compound was calculated according to the following equation: %activity = (F-Fb)/(Ft-Fb), where F= the fluorescent intensity in the presence of the compound.
The values of percentage activity were plotted on a bar graph.

HDAC6 = target: T1, HDAC6 (Homo sapiens, UniProt Q9UBN7); assay: In vitro HDAC6 inhibitory assay (BPS Bioscience, fluorogenic); format: biochemical; details: 10 µM
T1 construct: purchased BPS Bioscience 50006
T1 sequence (Q9UBN7 1-1215): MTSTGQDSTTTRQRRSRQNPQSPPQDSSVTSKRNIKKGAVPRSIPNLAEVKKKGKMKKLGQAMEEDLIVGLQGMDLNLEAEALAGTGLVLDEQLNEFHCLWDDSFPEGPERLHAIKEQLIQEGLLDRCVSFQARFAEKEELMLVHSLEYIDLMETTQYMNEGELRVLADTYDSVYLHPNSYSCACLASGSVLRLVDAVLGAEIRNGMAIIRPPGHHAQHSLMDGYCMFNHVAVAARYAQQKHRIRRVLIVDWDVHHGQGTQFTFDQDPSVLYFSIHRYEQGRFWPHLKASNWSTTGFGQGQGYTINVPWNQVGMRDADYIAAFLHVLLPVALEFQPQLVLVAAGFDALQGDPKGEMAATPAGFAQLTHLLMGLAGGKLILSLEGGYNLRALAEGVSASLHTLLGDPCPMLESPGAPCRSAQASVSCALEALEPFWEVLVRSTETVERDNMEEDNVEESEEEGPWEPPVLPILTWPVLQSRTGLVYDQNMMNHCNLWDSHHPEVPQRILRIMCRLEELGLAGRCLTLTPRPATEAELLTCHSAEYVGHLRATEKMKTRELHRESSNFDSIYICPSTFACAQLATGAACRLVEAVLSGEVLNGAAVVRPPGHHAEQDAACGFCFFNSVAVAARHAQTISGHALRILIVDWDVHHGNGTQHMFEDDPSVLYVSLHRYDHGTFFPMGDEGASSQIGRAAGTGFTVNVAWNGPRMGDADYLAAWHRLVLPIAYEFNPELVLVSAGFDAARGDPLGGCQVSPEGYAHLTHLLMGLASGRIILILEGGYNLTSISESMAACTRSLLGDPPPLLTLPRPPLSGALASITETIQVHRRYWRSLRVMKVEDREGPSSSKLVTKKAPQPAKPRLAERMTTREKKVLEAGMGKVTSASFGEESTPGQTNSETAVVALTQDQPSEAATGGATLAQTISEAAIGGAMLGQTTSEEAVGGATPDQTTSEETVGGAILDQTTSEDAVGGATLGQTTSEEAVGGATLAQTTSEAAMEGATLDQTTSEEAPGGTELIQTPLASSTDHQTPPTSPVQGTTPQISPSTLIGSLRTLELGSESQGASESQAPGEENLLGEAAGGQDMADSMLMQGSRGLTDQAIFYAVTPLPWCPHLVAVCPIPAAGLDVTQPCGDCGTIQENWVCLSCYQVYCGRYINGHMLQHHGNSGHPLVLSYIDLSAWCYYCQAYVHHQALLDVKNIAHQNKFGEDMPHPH
Procedure: (1 picture or pasted object on this page, not shown here)
HDAC activity assays were performed in duplicates at each concentration. The

Compound	% Inhibition Hela Nuclear Extracts (Hela nuclear extracts) [%]	Mean % inhibition HDAC6 (HDAC6) [%]	inhibition at 10 µM (HDAC6) [%]	melting point [°C]
Cc1c(C(=O)NO)sc2ncnc(Nc3ccc(NC(=O)Nc4ccccc4)cc3)c12 [Compound 7a, 1–(4-(6-(hydroxycarbamoyl)-5-methylthieno[2,3-d]pyrimidin-4-ylamino)phenyl)-3-phenylurea]	2	5	7	> 200
COc1cccc(NC(=O)Nc2ccc(Nc3ncnc4sc(C(=O)NO)c(C)c34)cc2)c1 [Compound 7b, 1–(4-(6-(hydroxycarbamoyl)-5-methylthieno[2,3-d]pyrimidin-4-ylamino)phenyl)-3–(3-methoxyphenyl)urea]	2	6	8	> 200
Cc1c(C(=O)NO)sc2ncnc(Nc3ccc(NC(=O)Nc4cccc(C(F)(F)F)c4)cc3)c12 [Compound 7c, 1–(4-(6-(hydroxycarbamoyl)-5-methylthieno[2,3-d]pyrimidin-4-ylamino)phenyl)-3–(3-(trifluoromethyl)phenyl)urea]	3	–	8	285
Cc1c(C(=O)NO)sc2ncnc(Nc3ccc(NC(=S)Nc4ccccc4)cc3)c12 [Compound 7d, 1–(4-(6-(hydroxycarbamoyl)-5-methylthieno[2,3-d]pyrimidin-4-ylamino)phenyl)-3-phenylthiourea]	3	–	6	300
Cc1c(C(=O)NCCC(=O)NO)sc2ncnc(Nc3ccc(NC(=O)Nc4ccccc4)cc3)c12 [Compound 11a, 1–(4-(6-((3-(hydroxyamino)-3-oxopropyl)carbamoyl)-5-methylthieno[2,3-d]pyrimidin-4-ylamino)phenyl)-3-phenylurea]	0	7	5	225
COc1cccc(NC(=O)Nc2ccc(Nc3ncnc4sc(C(=O)NCCC(=O)NO)c(C)c34)cc2)c1 [Compound 11b, 1–(4-(6-((3-(hydroxyamino)-3-oxopropyl)carbamoyl)-5-methylthieno[2,3-d]pyrimidin-4-ylamino)phenyl)-3–(3-methoxyphenyl)urea]	4	13	–	257 to 260
Cc1c(C(=O)NCCC(=O)NO)sc2ncnc(Nc3ccc(NC(=O)Nc4cccc(C(F)(F)F)c4)cc3)c12 [Compound 11c, 1–(4-(6-((3-(hydroxyamino)-3-oxopropyl)carbamoyl)-5-methylthieno[2,3-d]pyrimidin-4-ylamino)phenyl)-3–(3-(trifluoromethyl)phenyl)urea]	5	–	8	281
Cc1c(C(=O)NCCCC(=O)NO)sc2ncnc(Nc3ccc(NC(=O)Nc4ccccc4)cc3)c12 [Compound 12a, 1–(4-(6-((4-(hydroxyamino)-4-oxobutyl)carbamoyl)-5-methylthieno[2,3-d]pyrimidin-4-ylamino)phenyl)-3-phenylurea]	2	–	7	219
COc1cccc(NC(=O)Nc2ccc(Nc3ncnc4sc(C(=O)NCCCC(=O)NO)c(C)c34)cc2)c1 [Compound 12b, 1–(4-(6-((4-(hydroxyamino)-4-oxobutyl)carbamoyl)-5-methylthieno[2,3-d]pyrimidin-4-ylamino)phenyl)-3–(3-methoxyphenyl)urea]	3	7	13	231 to 233
Cc1c(C(=O)NCCCC(=O)NO)sc2ncnc(Nc3ccc(NC(=O)Nc4cccc(C(F)(F)F)c4)cc3)c12 [Compound 12c, 1–(4-(6-((4-(hydroxyamino)-4-oxobutyl)carbamoyl)-5-methylthieno[2,3-d]pyrimidin-4-ylamino)phenyl)-3–(3-(trifluoromethyl)phenyl)urea]	7	–	23	215 to 217
Cc1c(C(=O)NO)sc2ncnc(Nc3cccc4[nH]cnc34)c12 [Compound 15a, 4-(1H-benzo[d]imidazol-4-ylamino)-N-hydroxy-5-methylthieno[2,3-d]pyrimidine-6-carboxamide]	3	8	7	280
Cc1c(C(=O)NO)sc2ncnc(Nc3ccccc3)c12 [Compound 15b, N-hydroxy-5-methyl-4-(phenylamino)thieno[2,3-d]pyrimidine-6-carboxamide]	9	–	30	200
Cc1c(C(=O)NO)sc2ncnc(Nc3ccc(Cl)cc3)c12 [Compound 15c, 4–(4-chlorophenylamino)-N-hydroxy-5-methylthieno[2,3-d]pyrimidine-6-carboxamide]	4	7	9	349
Cc1c(C(=O)NO)sc2ncnc(Nc3ccc(F)c(Cl)c3)c12 [Compound 15d, 4–(3-chloro-4-fluorophenylamino)-N-hydroxy-5-methylthieno[2,3-d]pyrimidine-6-carboxamide]	4	4	7	320
Cc1c(C(=O)NCCC(=O)NO)sc2ncnc(Nc3ccccc3)c12 [Compound 19b, N-(3-(hydroxyamino)-3-oxopropyl)-5-methyl-4-(phenylamino)thieno[2,3-d]pyrimidine-6-carboxamide]	5	–	10	267 to 270
Cc1c(C(=O)NCCC(=O)NO)sc2ncnc(Nc3ccc(Cl)cc3)c12 [Compound 19c, 4–(4-chlorophenylamino)-N-(3-(hydroxyamino)-3-oxopropyl)-5-methylthieno[2,3-d]pyrimidine-6-carboxamide]	7	9	7	282
Cc1c(C(=O)NCCC(=O)NO)sc2ncnc(Nc3ccc(F)c(Cl)c3)c12 [Compound 19d, 4–(3-chloro-4-fluorophenylamino)-N-(3-(hydroxyamino)-3-oxopropyl)-5-methylthieno[2,3-d]pyrimidine-6-carboxamide]	2	0	–	276
